Marks after values point to notes of the source that are not given here.
Legend:
[1] = test system: rabbit model of meniscus damage; settings: cited from earlier work
[2] = test system: rabbit model of anterior cruciate ligament transection; settings: cited from earlier work
[3] = test system: cartilage cells acquired from knee osteoarthritis patients; settings: cited from earlier work
[4] = test system: knee osteoarthritis patients; settings: cited from earlier work
[5] = test system: rats subjected to ovariectomy; settings: cited from earlier work
[6] = test system: mice subjected to orchiectomy; settings: cited from earlier work
[7] = test system: monkeys subjected to ovariectomy; settings: cited from earlier work
hip osteoarthritis = settings: systematic review of clinical results; cited from earlier work
[8] = test system: spontaneous-onset guinea pig model; settings: cited from earlier work
[9] = test system: adenyl cyclase from rat kidney; experiment: Activity measurement according to the article of Marcus et al.; assay type: biochemical; settings: method of Marcus et al. (Non-Patent Document 44)
Experimental: [Non-Patent Document 44] Marcus, R et al. “Bioassay of parathyroid hormone in vitro with a stable preparation of adenyl cyclase from rat kidney” Endocrinology 85: 801-810, 1969. […]
(§1) Female patients diagnosed with primary osteoporosis on the basis of the diagnostic criteria of Non-Patent Document 42 were given intermittent subdermal administrations of 5 or 100 units of an acetate salt of human PTH (1-34), which was prepared using the method of Takai (Patent Documents 4 and 5, Non-Patent Document 43), once per week (accordingly, there was a 5-unit administration group and a 100-unit administration group). The measured activity of the acetate salt of human PTH (1-34) was 3300 units/mg in the present test example according to the article of Marcus et al. (Non-Patent Document 44).

mice = experiment: Fatal toxicity after administration to mice; assay type: in vivo; settings: 3300 or 2000 units/kg (body weight), intravenous, intramuscular, subdermal, or oral routes
Excerpt: (§2) The aforedescribed PTH or PTH derivative has extremely low toxicity.

[10] = test system: female patients diagnosed with primary osteoporosis; experiment: Test Example 2: onset and exacerbation of knee osteoarthritis during once-weekly subdermal administration (placebo vs 200-unit group); assay type: in vivo, human
Experimental: Two tablets of a calcium agent (containing 500 mg of precipitated calcium carbonate (200 mg of calcium) per tablet) were further administered orally once per day to the placebo group and the 200-unit administration group.
(§3) During the course of administration, both groups were prohibited from concurrent usage of calcitonin formulations, activated vitamin D3 formulations, vitamin K formulations, ipriflavone formulations, formulations of salts of bisphosphonic acid, estrogen formulations, anabolic-hormone formulations, doctor-prescribed calcium formulations (excepting the aforedescribed calcium agent administered as two tablets per day), and other medicinal agents thought to exert an effect on bone metabolism.
(§4) The attending physicians evaluated knee osteoarthritis according to the diagnostic criteria of each medical treatment facility on the basis of, e.g., the chief complaints of the patient, such as knee-joint pain and knee pain.

[11] = test system: female patients diagnosed with primary osteoporosis; experiment: Test Example 1: onset of knee osteoarthritis during once-weekly subdermal administration (5- vs 100-unit groups); assay type: in vivo, human; settings: for Frequency of onset (%) of knee osteoarthritis / Number of cases of onset of knee osteoarthritis: subdermal once per week
Experimental: as §1
An injectable formulation containing 5 or 100 units per vial of the acetate salt of human PTH (1-34) was dissolved into 1 mL of normal saline solution at the time of usage, and 1 mL/person was subdermally administered to the 5-unit and 100-unit groups. Two tablets of a calcium agent (containing 500 mg of precipitated calcium carbonate (200 mg of calcium) per tablet) were further administered orally once per day to the 5-unit and 100-unit groups.
as §3, §4
The frequency of onset of knee osteoarthritis in the 5-unit administration group in the present test example was also compared to the natural frequency of onset. The value used for the natural frequency of onset resulted from dividing the 174,000 female arthritis patients of ages 70 through 74 throughout the country in the Japanese Nationwide Patient Survey (2005, edited by the Statistics and Information Department of the Minister's Secretariat of the Ministry of Health, Labour and Welfare, [published by] the Health and Welfare Statistics Association) by the population of 3,597,754 women of the same age throughout the country according to the Statistics Bureau of the Ministry of Internal Affairs and Communications.

rats = experiment: Fatal toxicity after administration to rats; assay type: in vivo; settings: 3300 or 2000 units/kg (body weight), intravenous, intramuscular, subdermal, or oral routes
Excerpt: as §2

[12] = test system: rat model of osteoarthritis; settings: cited from earlier work
[13] = listed as printed as 100-unit administration group, subdermal once per week
[14] = 5-unit administration group, 165 cases

Molecule: Hyaluronate
- Accelerating healing [1]: accelerating healing
- Activity for limiting disease progression [2]: activity for limiting disease progression
- Limiting apoptosis of cartilage cells [3]: activity for limiting apoptosis of cartilage cells
- Limiting the production of enzymes that degrade the cartilage matrix [3]: showed activity for limiting the production of enzymes that degrade the cartilage matrix
- Efficacy as a medicine for limiting the progression of the disease ([4]; meta-analyses of clinical tests on knee osteoarthritis patients): in doubt

Molecule: Estrogen
- Activity for improving cartilage degeneration [5]: activity for improving cartilage degeneration
- Activity for improving cartilage degeneration [6]: activity for improving cartilage degeneration
- Activity for improving cartilage degeneration [7]: activity for improving cartilage degeneration
- Effects of estrogen therapy (hip osteoarthritis): has not been found to have clear effects
- Risk of hip osteoarthritis (hip osteoarthritis): increase the risk of hip osteoarthritis

Molecule: O=P(O)(O)C(O)(Cc1cccnc1)P(=O)(O)O [risedronate]
- Effect of limiting cartilage degeneration [8]: found to have an effect of limiting cartilage degeneration
- Medicinal effects ([4]; clinical tests on knee osteoarthritis patients): medicinal effects were not found

Molecule: human PTH (1-34)
- Measured activity [9]: 3300 units/mg
- Fatal toxicity (mice): never observed
- Frequency of onset of knee osteoarthritis, 200-unit group compared with placebo group ([10]; 200 units once per week): less than that in the placebo group
- Onset and exacerbation of knee osteoarthritis in osteoporosis patients ([10]; administration to osteoporosis patients): clearly and markedly limits the onset and exacerbation of knee osteoarthritis
- Exacerbation of knee osteoarthritis: Number of cases of exacerbation [10, 13]: 4
- Onset of knee osteoarthritis: Frequency of onset (%) [10, 13]: 5.4%
- Onset of knee osteoarthritis: Number of cases of onset [10, 13]: 15
- Frequency of onset (%) of knee osteoarthritis [11, 14]: 6.67%
- Number of cases of onset of knee osteoarthritis [11, 14]: 11
- Frequency of onset of knee osteoarthritis, 5-unit group compared with natural frequency of onset ([11]; 5 units once per week, 6.67% vs natural 4.84%): statistically significant difference was not found
- Number of cases of onset of knee osteoarthritis ([11]; 100-unit administration group, 314 cases): 4
- Frequency of onset (%) of knee osteoarthritis ([11]; 100-unit administration group, 314 cases, p < 0.05 vs 5-unit group): 1.27* %
- Frequency of onset of knee osteoarthritis, 100-unit group compared with 5-unit group ([11]; 100 units once per week vs 5 units, p<0.05): significantly less than that in the 5-unit administration group
- Onset of knee osteoarthritis, 100-unit group compared with natural onset ([11]; 100 units once per week, natural frequency of onset 4.84%): significantly more limited onset of knee osteoarthritis than in the case of natural onset
- Fatal toxicity (rats): never observed

B1: parathyroid hormone (protein, UniProt P01270 32-115, looked up)
Parathyroid hormone: SVSEIQLMHNLGKHLNSMERVEWLRKKLQDVHNFVALGAPLAPRDAGSQRPRKKEDNVLVESHEKSLGEADKADVNVLTKAKSQ
modifications: Parathyroid hormone
- Therapeutic effect [12]: a slight therapeutic effect

Reference: patent US20130012440A1, “PREVENTIVE AND/OR THERAPEUTIC AND/OR AGGRAVATION SUPPRESSING AGENT FOR HUMAN ARTHRITIS DEFORMANS” (ASAHI KASEI PHARMA CORPORATION, priority 2009, published 2013)
